Patent US8183201B2 (priority 2006, dated 2012)
pIC50: −log10 of the molar value.

How the values were obtained:
TGF-β = type: binding
TNF = type: binding
VEGF = type: binding
Calcitonin = molecular target: T1, Calcitonin (Homo sapiens, UniProt P30988); type: binding
T1 construct: MDS Pharma services, Taipei, Taiwan (contract assay)
T1 sequence (P30988 25-474): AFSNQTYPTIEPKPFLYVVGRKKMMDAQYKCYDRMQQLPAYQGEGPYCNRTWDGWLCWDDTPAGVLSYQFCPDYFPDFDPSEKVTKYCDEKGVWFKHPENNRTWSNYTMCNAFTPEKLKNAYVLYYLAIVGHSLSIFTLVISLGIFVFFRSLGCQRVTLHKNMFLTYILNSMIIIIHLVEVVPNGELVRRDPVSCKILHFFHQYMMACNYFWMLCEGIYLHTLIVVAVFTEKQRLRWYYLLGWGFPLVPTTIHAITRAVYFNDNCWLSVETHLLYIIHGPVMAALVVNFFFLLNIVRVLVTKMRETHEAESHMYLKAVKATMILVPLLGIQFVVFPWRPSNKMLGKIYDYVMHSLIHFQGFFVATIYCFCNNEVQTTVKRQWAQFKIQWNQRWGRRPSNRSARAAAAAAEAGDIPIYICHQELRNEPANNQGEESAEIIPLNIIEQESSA

Sodium Channel (Site 2) = type: binding
osteoarthritic rats = details: rat, in vivo
[1] = system: VEGF-induced angiogenesis; set-up: species or system C57BL/6 mice; details: mouse, in vivo
[2] = system: osteoclast precursors (bone marrow hematopoietic cells); type: cell-based, SD rats; details: read-out: IC50 Osteoclastogenesis
[3] = mouse, in vivo, iv, 30 mg/kg
Endothelin ETB = molecular target: T2, Endothelin ETB (Homo sapiens, UniProt P24530); type: binding
T2 construct: MDS Pharma services, Taipei, Taiwan (contract assay)
T2 sequence (P24530 27-442): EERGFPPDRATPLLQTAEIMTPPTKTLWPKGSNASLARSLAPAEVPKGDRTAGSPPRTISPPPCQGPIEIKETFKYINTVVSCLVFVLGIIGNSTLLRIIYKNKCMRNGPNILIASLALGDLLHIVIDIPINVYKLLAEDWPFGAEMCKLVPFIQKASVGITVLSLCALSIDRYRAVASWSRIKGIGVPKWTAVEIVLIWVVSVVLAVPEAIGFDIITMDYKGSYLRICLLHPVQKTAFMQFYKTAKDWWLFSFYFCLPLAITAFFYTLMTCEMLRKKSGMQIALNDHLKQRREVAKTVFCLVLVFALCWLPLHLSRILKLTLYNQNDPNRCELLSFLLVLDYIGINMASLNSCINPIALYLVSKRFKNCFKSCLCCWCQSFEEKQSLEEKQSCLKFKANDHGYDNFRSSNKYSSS

[4] = system: ovariectomized (OVX) rats; details: rat, in vivo, po, 1.5 mg/kg
Leptin = molecular target: T3, Leptin (Homo sapiens, UniProt P48357); type: binding
T3 construct: MDS Pharma services, Taipei, Taiwan (contract assay)
T3 sequence (P48357 22-1165): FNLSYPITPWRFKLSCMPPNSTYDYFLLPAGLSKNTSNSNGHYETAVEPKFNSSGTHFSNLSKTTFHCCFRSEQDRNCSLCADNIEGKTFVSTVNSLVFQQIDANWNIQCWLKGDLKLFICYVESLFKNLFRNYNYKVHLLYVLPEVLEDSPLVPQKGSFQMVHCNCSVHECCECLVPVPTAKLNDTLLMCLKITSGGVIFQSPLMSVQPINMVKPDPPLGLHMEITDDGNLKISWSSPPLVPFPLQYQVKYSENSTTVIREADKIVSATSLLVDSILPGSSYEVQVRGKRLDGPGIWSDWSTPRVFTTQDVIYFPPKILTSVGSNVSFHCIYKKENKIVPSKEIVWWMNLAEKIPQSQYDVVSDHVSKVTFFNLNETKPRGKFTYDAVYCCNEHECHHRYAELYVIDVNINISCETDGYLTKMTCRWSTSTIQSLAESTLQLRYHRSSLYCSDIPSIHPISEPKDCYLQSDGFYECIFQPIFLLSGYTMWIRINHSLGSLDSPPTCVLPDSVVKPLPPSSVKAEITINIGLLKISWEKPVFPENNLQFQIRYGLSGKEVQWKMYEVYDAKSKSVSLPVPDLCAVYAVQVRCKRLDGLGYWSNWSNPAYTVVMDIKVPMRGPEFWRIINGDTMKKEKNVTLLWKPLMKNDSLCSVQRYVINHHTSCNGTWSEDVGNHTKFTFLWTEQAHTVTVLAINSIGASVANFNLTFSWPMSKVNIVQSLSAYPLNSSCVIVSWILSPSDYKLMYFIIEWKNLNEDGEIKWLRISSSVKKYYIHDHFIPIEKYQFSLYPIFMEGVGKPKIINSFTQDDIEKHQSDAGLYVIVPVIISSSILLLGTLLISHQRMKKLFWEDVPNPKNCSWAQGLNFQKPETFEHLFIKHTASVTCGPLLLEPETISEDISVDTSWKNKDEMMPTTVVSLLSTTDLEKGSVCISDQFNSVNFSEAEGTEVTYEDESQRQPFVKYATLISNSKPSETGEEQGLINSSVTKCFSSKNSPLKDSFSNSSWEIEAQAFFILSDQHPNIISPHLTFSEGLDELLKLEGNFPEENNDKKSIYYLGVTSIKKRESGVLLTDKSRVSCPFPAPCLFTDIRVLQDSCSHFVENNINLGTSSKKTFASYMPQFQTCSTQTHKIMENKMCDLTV

osteoarthritic mice = details: mouse, in vivo
Insulin = molecular target: T4, Insulin (Rattus norvegicus, UniProt P15127); type: binding
T4 construct: MDS Pharma services, Taipei, Taiwan (contract assay)

osteoarthritis rats = system: osteoarthritis rats; set-up: species or system Sprague-Dawley rats; details: rat, in vivo

T4 sequence (P15127 27-1383): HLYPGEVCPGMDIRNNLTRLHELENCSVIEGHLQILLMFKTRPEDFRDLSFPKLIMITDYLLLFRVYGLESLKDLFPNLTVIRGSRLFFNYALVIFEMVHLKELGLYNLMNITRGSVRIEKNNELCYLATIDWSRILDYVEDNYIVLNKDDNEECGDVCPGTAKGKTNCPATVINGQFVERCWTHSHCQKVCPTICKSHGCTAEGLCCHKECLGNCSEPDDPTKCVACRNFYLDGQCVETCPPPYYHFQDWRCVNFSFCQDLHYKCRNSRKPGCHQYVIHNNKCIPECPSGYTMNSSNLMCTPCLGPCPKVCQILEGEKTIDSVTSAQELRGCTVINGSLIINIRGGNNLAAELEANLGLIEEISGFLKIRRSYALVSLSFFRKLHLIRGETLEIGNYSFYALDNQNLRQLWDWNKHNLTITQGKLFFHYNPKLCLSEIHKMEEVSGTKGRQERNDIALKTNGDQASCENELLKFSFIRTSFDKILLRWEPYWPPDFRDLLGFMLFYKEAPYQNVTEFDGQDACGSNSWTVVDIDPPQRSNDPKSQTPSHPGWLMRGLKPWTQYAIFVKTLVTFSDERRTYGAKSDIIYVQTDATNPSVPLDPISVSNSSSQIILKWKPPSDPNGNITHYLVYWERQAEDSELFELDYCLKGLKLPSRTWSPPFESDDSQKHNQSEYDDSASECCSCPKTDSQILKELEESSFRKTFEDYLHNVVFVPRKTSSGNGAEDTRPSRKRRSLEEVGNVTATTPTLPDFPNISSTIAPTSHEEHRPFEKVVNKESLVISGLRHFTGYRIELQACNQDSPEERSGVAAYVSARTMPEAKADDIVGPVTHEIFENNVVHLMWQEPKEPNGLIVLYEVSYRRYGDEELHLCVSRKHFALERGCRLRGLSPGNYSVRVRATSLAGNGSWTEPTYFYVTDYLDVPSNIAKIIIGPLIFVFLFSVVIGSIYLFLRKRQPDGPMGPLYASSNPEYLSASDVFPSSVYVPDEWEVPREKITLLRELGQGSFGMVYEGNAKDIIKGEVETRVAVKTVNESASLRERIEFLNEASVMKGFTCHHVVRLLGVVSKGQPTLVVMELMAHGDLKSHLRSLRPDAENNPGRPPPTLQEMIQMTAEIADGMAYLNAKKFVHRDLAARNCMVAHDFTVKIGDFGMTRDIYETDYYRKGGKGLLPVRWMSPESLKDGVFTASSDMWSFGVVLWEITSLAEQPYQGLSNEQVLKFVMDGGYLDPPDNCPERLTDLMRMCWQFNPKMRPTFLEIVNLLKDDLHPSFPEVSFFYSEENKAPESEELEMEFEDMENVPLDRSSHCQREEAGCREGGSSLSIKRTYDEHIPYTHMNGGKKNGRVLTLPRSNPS

## RD: rhodostomin variant having a RGD motif variant ^48PRLDMP^53, SEQ ID NO: 36
TGF-β
  Inhibition, TGF-β: 14%
TNF
  Inhibition, TNF: 4%
VEGF
  Inhibition, VEGF: −14%
Calcitonin
  Inhibition, Calcitonin: 4%
Sodium Channel (Site 2)
  Inhibition, Sodium Channel (Site 2): 2%
Osteoarthritic rats
  osteoarthritis-induced elevation of serum cytokines (c-reactive protein, IL-1β, IL-6): markedly inhibited the osteoarthritis-induced elevation of cytokines
[1]
  hemoglobin content in MATRIGEL plugs: reduced hemoglobin content
  inhibition of angiogenesis in MATRIGEL plug: effective in inhibiting angiogenesis
[2]
  pIC50: 8.48
[3]
  survival of mice: did not affect the survival of mice
Endothelin ETB
  Inhibition, Endothelin ETB: 10%
[4]
  BMC, Femur: 0.441 ± 0.018 g
  BMC, Tibia: 0.299 ± 0.011 g
  BMD, Femur: 0.135 ± 0.004 g/cm^2
  BMD, Tibia: 0.113 ± 0.009 g/cm^2
  Bone length, Femur: 3.71 ± 0.06 mm
  Bone length, Tibia: 4.01 ± 0.03 mm
  Bone volume: 16.3 ± 2.7 %
  Wet weight, Femur: 985.3 ± 9.8 mg
  Wet weight, Tibia: 749 ± 20.1 mg
  ovariectomy-induced increase in osteoclast activity (serum C-terminal telopeptide of type-I collagen): reversed the ovariectomy-induced increase in osteoclast activity
Leptin
  Inhibition, Leptin: 1%
Osteoarthritic mice
  osteoarthritis-induced elevation of serum cytokines (c-reactive protein, IL-1, IL-6): markedly inhibited the osteoarthritis-induced elevation of cytokines
Insulin
  Inhibition, Insulin: −6%
Osteoarthritis rats
  chondrocyte layer destruction in knee joint: inhibited the chondrocyte layer destruction
